Consider 29 compounds from patent US7723368B2, “Amino-5-[4-(difluoromethoxy)phenyl]-5-phenylimidazolone compounds for the inhibition of beta-secretase” (Wyeth LLC, priority 2007, dated 2010).

For data set [1], the target named is human BACE1 (Homo sapiens, UniProt P56817). The data set is described as follows: BACE1 fluorescent kinetic assay (cleavage of peptide substrate WABC-6). The data set is classed as biochemical. Conditions: 10 nM enzyme, 25 μM substrate WABC-6, pH 4.5, room temperature. As for the experimental part: Evaluation of BACE1 Binding Affinity of Test Compounds
Sequence of human BACE1 (P56817 46-501): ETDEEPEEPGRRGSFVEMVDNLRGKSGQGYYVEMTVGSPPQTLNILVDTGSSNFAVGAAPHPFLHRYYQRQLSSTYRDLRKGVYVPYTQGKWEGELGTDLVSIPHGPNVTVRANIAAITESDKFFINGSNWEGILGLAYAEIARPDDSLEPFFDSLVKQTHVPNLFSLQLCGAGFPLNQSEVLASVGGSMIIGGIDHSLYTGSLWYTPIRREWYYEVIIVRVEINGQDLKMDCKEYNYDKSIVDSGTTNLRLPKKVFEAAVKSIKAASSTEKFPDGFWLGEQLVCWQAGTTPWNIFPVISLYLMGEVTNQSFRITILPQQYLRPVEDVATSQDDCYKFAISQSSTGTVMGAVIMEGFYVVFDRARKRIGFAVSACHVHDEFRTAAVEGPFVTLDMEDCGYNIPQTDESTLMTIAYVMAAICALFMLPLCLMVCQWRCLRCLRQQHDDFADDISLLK
Fluorescent Kinetic Assays
Dilution and mixing steps: total reaction volume: 100 μL
100 μM substrate dilution in 1×PBS was prepared, and
Fluorescence Readings: Readings at λex 320 nm and λem 420 nm are taken every 40 sec for 30 min at room temperature and the linear slope for substrate cleavage rate (vi) determined.

Consider `C=CCCC(F)c1cccc(C2(c3ccc(OC(F)F)cc3)N=C(N)N(C)C2=O)c1` (stereo not drawn) [Example 12, 2-Amino-5-(4-difluoromethoxy-phenyl)-5-[3-(1-fluoro-pent-4-enyl)-phenyl]-3-methyl-3,5-dihydro-imidazol-4-one], for which the melting point lay within 50 to 55 °C. The compound further yielded an IC50 in data set [1] (Activity Table, Examples 1-108) below 100 nM.
The like results for `C=CCCC(F)c1cc(C2(c3ccc(OC(F)F)cc3)N=C(N)N(C)C2=O)ccc1F` (stereo not drawn) [Example 13, 2-Amino-5-(4-difluoromethoxy-phenyl)-5-[4-fluoro-3-(1-fluoro-pent-4-enyl)-phenyl]-3-methyl-3,5-dihydro-imidazol-4-one] were, in that order, 50 to 55 °C and 110 to 1000 nM.
Compound `CN1C(=O)C(c2ccc(OC(F)F)cc2)(c2ccc(F)c(CCCC#N)c2)N=C1N` (stereo not drawn) [Example 14, 4-{5-[2-Amino-4-(4-difluoromethoxy-phenyl)-1-methyl-5-oxo-4,5-dihydro-1H-imidazol-4-yl]-2-fluoro-phenyl}-butyronitrile] gave a melting point of 65 to 70 °C. In data set [1] (Activity Table, Examples 1-108), this compound showed an IC50 below 100 nM.
In turn, `Cc1cc(C2(c3ccc(OC(F)F)cc3)N=C(N)N(C)C2=O)ccc1F` (stereo not drawn) [Example 15, 2-Amino-5-(4-difluoromethoxy-phenyl)-5-(4-fluoro-3-methyl-phenyl)-3-methyl-3,5-dihydro-imidazol-4-one] had a melting point of 70 °C. In data set [1] (Activity Table, Examples 1-108), this compound yielded an IC50 of 110 to 1000 nM.
In the case of `COc1ccc(C2(c3ccc(OC(F)F)cc3)N=C(N)N(C)C2=O)cc1C#N` (stereo not drawn) [Example 16, 5-[2-Amino-4-(4-difluoromethoxy-phenyl)-1-methyl-5-oxo-4,5-dihydro-1H-imidazol-4-yl]-2-methoxy-benzonitrile], the melting point is 104 to 105 °C. For the same compound, the IC50 in data set [1] (Activity Table, Examples 1-108) was above 1000 nM.
The like results for `CN1C(=O)C(c2ccc(OC(F)F)cc2)(c2ccc(F)c(CF)c2)N=C1N` (stereo not drawn) [Example 17, 2-Amino-5-(4-difluoromethoxy-phenyl)-5-(4-fluoro-3-fluoromethyl-phenyl)-3-methyl-3,5-dihydro-imidazol-4-one] were, in that order, 70 to 73 °C and 110 to 1000 nM.
`Cc1ccccc1C1(c2ccc(OC(F)F)cc2)N=C(N)N(C)C1=O` (stereo not drawn) [Example 18, 2-Amino-5-(4-difluoromethoxy-phenyl)-3-methyl-5-o-tolyl-3,5-dihydro-imidazol-4-one] displayed a melting point of 85 to 90 °C. The IC50 in data set [1] (Activity Table, Examples 1-108) is above 1000 nM.
Take `CN1C(=O)C(c2ccc(OC(F)F)cc2)(c2ccc(F)c(C#CCCF)c2)N=C1N` (stereo not drawn) [Example 102, 2-amino-5-[4-(difluoromethoxy)phenyl]-5-[4-fluoro-3-(4-fluorobut-1-yn-1-yl)phenyl]-3-methyl-3,5-dihydro-4H-imidazol-4-one]: the IC50 in data set [1] (Activity Table, Examples 1-108) is below 100 nM.
On to `CN1C(=O)[C@](c2ccc(OC(F)F)cc2)(c2ccc(F)c(C#CCCF)c2)N=C1N` [Example 103, (5S)-2-amino-5-[4-(difluoromethoxy)phenyl]-5-[4-fluoro-3-(4-fluorobut-1-yn-1-yl)phenyl]-3-methyl-3,5-dihydro-4H-imidazol-4-one], for which the concentration for half-maximal inhibition (IC50) in data set [1] (Activity Table, Examples 1-108) was above 1000 nM.
Compound `CN1C(=O)[C@@](c2ccc(OC(F)F)cc2)(c2ccc(F)c(C#CCCF)c2)N=C1N` [Example 104, (5R)-2-amino-5-[4-(difluoromethoxy)phenyl]-5-[4-fluoro-3-(4-fluorobut-1-yn-1-yl)phenyl]-3-methyl-3,5-dihydro-4H-imidazol-4-one] returned an IC50 in data set [1] (Activity Table, Examples 1-108) below 100 nM.
Consider `CN1C(=O)[C@@](c2ccc(OC(F)F)cc2)(c2ccc(F)c(C#CCF)c2)N=C1N` [Example 107, (5R)-2-amino-5-[4-(difluoromethoxy)phenyl]-5-[4-fluoro-3-(3-fluoroprop-1-yn-1-yl)phenyl]-3-methyl-3,5-dihydro-4H-imidazol-4-one], for which the IC50 in data set [1] (Activity Table, Examples 1-108) is below 100 nM.
Consider `CN1C(=O)[C@](c2ccc(OC(F)F)cc2)(c2ccc(F)c(C#CCF)c2)N=C1N` [Example 108, (5S)-2-amino-5-[4-(difluoromethoxy)phenyl]-5-[4-fluoro-3-(3-fluoroprop-1-yn-1-yl)phenyl]-3-methyl-3,5-dihydro-4H-imidazol-4-one], for which the IC50 in data set [1] (Activity Table, Examples 1-108) was above 1000 nM.
In turn, `CCOC/C=C(\C)c1cccc(C2(c3ccc(OC(F)F)cc3)N=C(N)N(C)C2=O)c1` (stereo not drawn) [Example 109, 2-amino-5-[4-(difluoromethoxy)phenyl]-5-{3-[(1E)-3-ethoxy-1-methylprop-1-en-1-yl]phenyl}-3-methyl-3,5-dihydro-4H-imidazol-4-one] yielded an IC50 in data set [1] (Examples 109-141) of 110 to 1000 nM.
In data set [1] (Examples 109-141), `C=CC[C@H](C)c1cccc(C2(c3ccc(OC(F)F)cc3)N=C(N)N(C)C2=O)c1` (stereo partly drawn) [Example 110, 2-amino-5-[4-(difluoromethoxy)phenyl]-3-methyl-5-{3-[(1S)-1-methylbut-3-en-1-yl]phenyl}-3,5-dihydro-4H-imidazol-4-one] showed an IC50 of 110 to 1000 nM.
Regarding `COCCC(C)c1cccc(C2(c3ccc(OC(F)F)cc3)N=C(N)N(C)C2=O)c1` (stereo not drawn) [Example 111, 2-amino-5-[4-(difluoromethoxy)phenyl]-5-[3-(3-methoxy-1-methylpropyl)phenyl]-3-methyl-3,5-dihydro-4H-imidazol-4-one], the IC50 in data set [1] (Examples 109-141) was above 1000 nM.
Still for that read-out and setting: the value for `CCOCCC(C)c1cccc(C2(c3ccc(OC(F)F)cc3)N=C(N)N(C)C2=O)c1` (stereo not drawn) [Example 112, 2-amino-5-[4-(difluoromethoxy)phenyl]-5-[3-(3-ethoxy-1-methylpropyl)phenyl]-3-methyl-3,5-dihydro-4H-imidazol-4-one] was above 1000 nM; that for `Cc1cc2cc(C3(c4ccc(OC(F)F)cc4)N=C(N)N(C)C3=O)ccc2o1` (stereo not drawn) [Example 113, 2-amino-5-[4-(difluoromethoxy)phenyl]-3-methyl-5-(2-methyl-1-benzofuran-5-yl)-3,5-dihydro-4H-imidazol-4-one] was above 1000 nM.
`CN1C(=O)C(c2ccc(OC(F)F)cc2)(c2cccc(N)c2)N=C1N` (stereo not drawn) [Example 115, 2-amino-5-(3-aminophenyl)-5-[4-(difluoromethoxy)phenyl]-3-methyl-3,5-dihydro-4H-imidazol-4-one] showed an IC50 in data set [1] (Examples 109-141) above 1000 nM.
As for `CC(=O)Nc1cccc(C2(c3ccc(OC(F)F)cc3)N=C(N)N(C)C2=O)c1` (stereo not drawn) [Example 116, N-(3-{2-amino-4-[4-(difluoromethoxy)phenyl]-1-methyl-5-oxo-4,5-dihydro-1H-imidazol-4-yl}phenyl)acetamide], in data set [1] (Examples 109-141), the IC50 was in the range of 110 to 1000 nM.
In the case of `CN1C(=O)C(c2ccc(OC(F)F)cc2)(c2cccc(NC(=O)c3ccc4c(c3)CCO4)c2)N=C1N` (stereo not drawn) [Example 117, N-(3-{2-amino-4-[4-(difluoromethoxy)phenyl]-1-methyl-5-oxo-4,5-dihydro-1H-imidazol-4-yl}phenyl)-2,3-dihydro-1-benzofuran-5-carboxamide], the IC50 in data set [1] (Examples 109-141) is below 100 nM.
Compound `C=CCCCCc1cccc(C2(c3ccc(OC(F)F)cc3)N=C(N)N(C)C2=O)c1` (stereo not drawn) [Example 121, 2-amino-5-[4-(difluoromethoxy)phenyl]-5-(3-hex-5-en-I-ylphenyl)-3-methyl-3,5dihydro-4H-imidazol-4-one] had an IC50 in data set [1] (Examples 109-141) below 100 nM.
In turn, `C=CCCCCc1cccc(C2(c3ccc(OC(F)F)cc3)N=C(N)N(C)C2=O)c1` (stereo not drawn) [Example 125, 2-amino-5-[4-(difluoromethoxy)phenyl]-5-(3-hex-5-en-I-ylphenyl)-3-methyl-3,5-dihydro-4H-imidazol-4-one] showed an IC50 in data set [1] (Examples 109-141) below 100 nM.
Regarding `CCCCCCc1cccc(C2(c3ccc(OC(F)F)cc3)N=C(N)N(C)C2=O)c1` (stereo not drawn) [Example 126, 2-amino-5-[4-(difluoromethoxy)phenyl]-5-(3-hexylphenyl)-3-methyl-3,5-dihydro-4Himidazol-4-one], the IC50 in data set [1] (Examples 109-141) was in the range of 110 to 1000 nM.
Regarding `COCCCC/C=C/c1cccc([C@@]2(c3ccc(OC(F)F)cc3)N=C(N)N(C)C2=O)c1` [Example 129, (R,E)-2-amino-4-(4-(difluoromethoxy)phenyl)-4-(3-(6-methoxyhex-1-enyl)phenyl)-1-methyl-1H-imidazol-5(4H)-one], the IC50 in data set [1] (Examples 109-141) is below 100 nM.
Same read-out and setting: to `CC(C)Oc1cc(C2(c3ccc(OC(F)F)cc3)N=C(N)N(C)C2=O)ccc1F` (stereo not drawn) [Example 136, 2-amino-5-[4-(difluoromethoxy)phenyl]-5-(4-fluoro-3-isopropoxyphenyl)-3-methyl-3,5-dihydro-4H-imidazol-4-one] belongs 110 to 1000 nM.
The same measure, in the same setting: the value for `CC(C)C#Cc1cc(C2(c3ccc(OC(F)F)cc3)N=C(N)N(C)C2=O)ccc1F` (stereo not drawn) [Example 138, 2-amino-5-[4-(difluoromethoxy)phenyl]-5-[4-fluoro-3-(3-methylbut-1-yn-1-yl)phenyl]-3-methyl-3,5-dihydro-4H-imidazol-4-one] was below 100 nM.
Consider `CN1C(=O)[C@@](c2ccc(OC(F)F)cc2)(c2ccc(F)c(/C=C/CCF)c2)N=C1N` [Example 140, (5R)-2-amino-5-[4-(difluoromethoxy)phenyl]-5-{4-fluoro-3-[(1E)-4-fluorobut-1-en1-yl]phenyl}-3-methyl-3,5-dihydro-4H-imidazol-4-one], for which the IC50 in data set [1] (Examples 109-141) is above 1000 nM.
The same measure, in the same setting: the value for `CN1C(=O)[C@](c2ccc(OC(F)F)cc2)(c2ccc(F)c(/C=C/CCF)c2)N=C1N` [Example 141, (5S)-2-amino-5-[4-(difluoromethoxy)phenyl]-5-{4-fluoro-3-[(1E)-4-fluorobut-1-en-1-yl]phenyl}-3-methyl-3,5-dihydro-4H-imidazol-4-one] was below 100 nM.
In data set [1] (Activity Table, Examples 1-108), “methyl[3-(3-{2-amino-4-[4-(difluoromethoxy)phenyl]-1-methyl-5-oxo-4,5-dihydro-1H-imidazol-4-yl}phenyl)-1-methoxycyclobutyl]acetate-methyl[3-(3-{2-amino-4-[4-(difluoromethoxy)phenyl]-1-methyl-5-oxo-4,5-dihydro-1H-imidazol-4-yl}phenyl)cyclobutylidene]acetate (3:1) [Example 55]” registered an IC50 of 110 to 1000 nM.

The term IC50 denotes the concentration at which inhibition is half-maximal. The low end stands for greater potency in that assay, the high end for weaker potency in that assay. Broadly, the melting point is the temperature, or range, at which the solid turns liquid.
